Measurements taken from patent US8084649B2, “Herbicides” (Syngenta Crop Protection, inc., priority 2007, dated 2011).

Columns and labels:
Format in all cases: in vivo
[1] = test system: Alopecurus myosuroides (ALOMY); assay: Pre-emergence herbicidal activity, glasshouse pot test; conditions: Alopecurus myosuroides, 480 h, rate 500 g/ha, evaluated after 20 days, read-out: Pre-emergence activity, ALOMY (100=total damage to plant; 0=no damage to plant)
In short: (§1)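 One day after sowing in sterilised soil, pots receive an aqueous spray made from the compound dissolved in acetone and a formulation of emulsifier, N-methylpyrrolidone, glycol ether and X-77 wetter. Injury is assessed 20 days later against untreated expectations, scored from 0 (no damage) to 100.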

Avena fatua (AVEFA) [2] = assay: as above; conditions: Avena fatua, 480 h, rate 500 g/ha, evaluated after 20 days, read-out: Pre-emergence activity, AVEFA (100=total damage to plant; 0=no damage to plant)
In short: as §1

[3] = test system: Digitaria sanguinalis (DIGSA); assay: as above; conditions: Digitaria sanguinalis, 480 h, rate 500 g/ha, evaluated after 20 days, read-out: Pre-emergence activity, DIGSA (100=total damage to plant; 0=no damage to plant)
In short: as §1

[4] = test system: Echinochloa crus-galli (ECHCG); assay: as above; conditions: Echinochloa crus-galli, 480 h, rate 500 g/ha, evaluated after 20 days, read-out: Pre-emergence activity, ECHCG (100=total damage to plant; 0=no damage to plant)
In short: as §1

Lolium perenne (LOLPE) [5] = assay: as above; conditions: Lolium perenne, 480 h, rate 500 g/ha, evaluated after 20 days, read-out: Pre-emergence activity, LOLPE (100=total damage to plant; 0=no damage to plant)
In short: as §1

Setaria faberi (SETFA) [6] = assay: as above; conditions: Setaria faberi, 480 h, rate 500 g/ha, evaluated after 20 days, read-out: Pre-emergence activity, SETFA (100=total damage to plant; 0=no damage to plant)
In short: as §1

[7] = test system: Alopecurus myosuroides (ALOMY); assay: Post-emergence herbicidal activity, glasshouse pot test; conditions: Alopecurus myosuroides, evaluated after 14 or 15 days, read-out: Post-emergence activity, ALOMY (100=total damage to plant; 0=no damage to plant); for pest or weed control at 500 g/ha: rate 500 g/ha; for pest or weed control at 125 g/ha: rate 125 g/ha
In short: (§2)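 Foliar application to ten-day-old pot-grown seedlings; formulation: acetone plus solvent/surfactant blend (Emulsogen EL, NMP, DPGME, X-77), diluted in water. Scoring 14/15 d post-spray, 0–100% damage.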

Avena fatua (AVEFA) [8] = assay: as above; conditions: Avena fatua, evaluated after 14 or 15 days, read-out: Post-emergence activity, AVEFA (100=total damage to plant; 0=no damage to plant); for pest or weed control at 500 g/ha: rate 500 g/ha; for pest or weed control at 125 g/ha: rate 125 g/ha
In short: as §2

[9] = test system: Digitaria sanguinalis (DIGSA); assay: as above; conditions: Digitaria sanguinalis, evaluated after 14 or 15 days, read-out: Post-emergence activity, DIGSA (100=total damage to plant; 0=no damage to plant); for pest or weed control at 500 g/ha: rate 500 g/ha; for pest or weed control at 125 g/ha: rate 125 g/ha
In short: as §2

[10] = test system: Echinochloa crus-galli (ECHCG); assay: as above; conditions: Echinochloa crus-galli, evaluated after 14 or 15 days, read-out: Post-emergence activity, ECHCG (100=total damage to plant; 0=no damage to plant); for pest or weed control at 500 g/ha: rate 500 g/ha; for pest or weed control at 125 g/ha: rate 125 g/ha
In short: as §2

Lolium perenne (LOLPE) [11] = assay: as above; conditions: Lolium perenne, evaluated after 14 or 15 days, read-out: Post-emergence activity, LOLPE (100=total damage to plant; 0=no damage to plant); for pest or weed control at 500 g/ha: rate 500 g/ha; for pest or weed control at 125 g/ha: rate 125 g/ha
In short: as §2

Setaria faberi (SETFA) [12] = assay: as above; conditions: Setaria faberi, evaluated after 14 or 15 days, read-out: Post-emergence activity, SETFA (100=total damage to plant; 0=no damage to plant); for pest or weed control at 500 g/ha: rate 500 g/ha; for pest or weed control at 125 g/ha: rate 125 g/ha
In short: as §2

SMILES	pest or weed control at 500 g/ha [1]	pest or weed control at 500 g/ha (Avena fatua (AVEFA) [2])	pest or weed control at 500 g/ha [3]	pest or weed control at 500 g/ha [4]	pest or weed control at 500 g/ha (Lolium perenne (LOLPE) [5])	pest or weed control at 500 g/ha (Setaria faberi (SETFA) [6])	pest or weed control at 500 g/ha [7]	pest or weed control at 500 g/ha (Avena fatua (AVEFA) [8])	pest or weed control at 500 g/ha [9]	pest or weed control at 500 g/ha [10]	pest or weed control at 500 g/ha (Lolium perenne (LOLPE) [11])	pest or weed control at 500 g/ha (Setaria faberi (SETFA) [12])	pest or weed control at 125 g/ha [7]	pest or weed control at 125 g/ha (Avena fatua (AVEFA) [8])	pest or weed control at 125 g/ha [9]	pest or weed control at 125 g/ha [10]	pest or weed control at 125 g/ha (Lolium perenne (LOLPE) [11])	pest or weed control at 125 g/ha (Setaria faberi (SETFA) [12])
CSCCC1CC(=O)C(c2c(C)cc(C)cc2C)=C(O)C1 (stereo not drawn) [Compound T12]	70%	20%	0%	30%	40%	0%	80%	30%	90%	80%	60%	90%						
CCc1cc(C)cc(CC)c1C1=C(O)CC2(CCC(OC)CC2)CC1=O (stereo not drawn) [Compound T68]	90%	70%	100%	70%	100%	30%							80%	40%	30%	20%	80%	20%
CCc1cc(C)cc(CC)c1C1=C(O)CC(CCSC)CC1=O (stereo not drawn) [Compound T16]	90%	70%	100%	90%	100%	100%	100%	80%	100%	70%	90%	90%						
CCc1cc(C)cc(CC)c1C1=C(O)CC2(CCOCC2)CC1=O [Compound T22, 9-(2,6-diethyl-4-methylphenyl)-3-oxaspiro[5.5]undecane-8,10-dione]	100%	100%	100%	100%	100%	100%							100%	90%	100%	100%	90%	100%
CCc1cc(C)cc(CC)c1C1=C(OS(=O)(=O)Cc2ccccc2)CC2(CCOCC2)CC1=O [Compound P26]	80%	80%	60%	40%	90%	70%							10%	0%	10%	0%	0%	0%
Cc1cc(C)c(C2=C(O)CC(CC(C)SC(C)C)CC2=O)c(C)c1 (stereo not drawn) [Compound T39]	70%	70%	90%	60%	80%	70%							10%	0%	30%	20%	0%	10%
CCc1cc(C)cc(CC)c1C1=C(OC(=O)C(C)(C)C)CC2(CCOCC2)CC1=O [Compound P4]	100%	100%	100%	90%	100%	100%	100%	90%	80%	100%	100%	80%						
CCCSC(C)CC1CC(=O)C(c2c(CC)cc(C)cc2CC)=C(O)C1 (stereo not drawn) [Compound T32]	90%	80%	100%	100%	100%	100%	80%	80%	100%	100%	90%	100%						
CCSC(C)CC1CC(=O)C(c2c(CC)cc(C)cc2CC)=C(O)C1 (stereo not drawn) [Compound T7, 2-(2,6-diethyl-4-methylphenyl)-5-[2-(ethylthio)propyl]cyclohexane-1,3-dione]	100%	100%	100%	100%	100%	100%	100%	90%	90%	90%	100%	100%						
CCc1cc(C)cc(CC)c1C1=C(OC(=O)C2CC2)CC2(CCOCC2)CC1=O [Compound P9]	100%	100%	100%	100%	100%	100%							80%	100%	90%	100%	90%	90%
CCc1cc(CC)c(C2=C(O)CC3(CCOCC3)CC2=O)c(CC)c1 [Compound T2]	80%	70%	100%	100%	100%	90%	80%	80%	100%	100%	80%	80%						
CCc1cc(C)cc(CC)c1C1=C(O)CC(COCCOC)CC1=O (stereo not drawn) [Compound T24]	100%	80%	100%	100%	100%	100%	90%	80%	90%	100%	90%	100%						
